Experimental data from patent US20140051679A1, “KINASE INHIBITORS AND METHOD OF TREATING CANCER WITH SAME” (UNIVERISTY HEALTH NETWORKS, priority 2011, published 2014).

How the values were obtained:
[1] = tested on: MDA-MB-468 breast cancer cells; assay: Cell growth inhibition, Sulforhodamine B assay, MDA-MB-468; assay type: cell-based; conditions: Homo sapiens, 120 h, 5 days culture, SRB assay, read-out: Cell Line GI50 Range MDA-MB-468
[2] = tested on: PA-1 ovarian cancer cells; assay: Cell growth inhibition, Sulforhodamine B assay, PA-1; assay type: cell-based; conditions: 120 h, 5 days culture, SRB assay, read-out: Cell Line GI50 Range PA-1
HT29 colon cancer cells = assay: Cell growth inhibition, Sulforhodamine B assay, HT29; assay type: cell-based; conditions: Homo sapiens, HT-29, 120 h, 5 days culture, SRB assay, read-out: Cell Line GI50 Range HT29
human TTK = molecular target: T1, human TTK (Homo sapiens, UniProt P33981); assay: TTK inhibition assay (indirect ELISA); assay type: biochemical; conditions: GST-TTK 0.68 nM, 16 μM ATP; read-out: IC50 Ranges TTK
T1 construct: amino terminal GST fusion of full length human TTK; purchased Invitrogen
T1 sequence (P33981 1-857): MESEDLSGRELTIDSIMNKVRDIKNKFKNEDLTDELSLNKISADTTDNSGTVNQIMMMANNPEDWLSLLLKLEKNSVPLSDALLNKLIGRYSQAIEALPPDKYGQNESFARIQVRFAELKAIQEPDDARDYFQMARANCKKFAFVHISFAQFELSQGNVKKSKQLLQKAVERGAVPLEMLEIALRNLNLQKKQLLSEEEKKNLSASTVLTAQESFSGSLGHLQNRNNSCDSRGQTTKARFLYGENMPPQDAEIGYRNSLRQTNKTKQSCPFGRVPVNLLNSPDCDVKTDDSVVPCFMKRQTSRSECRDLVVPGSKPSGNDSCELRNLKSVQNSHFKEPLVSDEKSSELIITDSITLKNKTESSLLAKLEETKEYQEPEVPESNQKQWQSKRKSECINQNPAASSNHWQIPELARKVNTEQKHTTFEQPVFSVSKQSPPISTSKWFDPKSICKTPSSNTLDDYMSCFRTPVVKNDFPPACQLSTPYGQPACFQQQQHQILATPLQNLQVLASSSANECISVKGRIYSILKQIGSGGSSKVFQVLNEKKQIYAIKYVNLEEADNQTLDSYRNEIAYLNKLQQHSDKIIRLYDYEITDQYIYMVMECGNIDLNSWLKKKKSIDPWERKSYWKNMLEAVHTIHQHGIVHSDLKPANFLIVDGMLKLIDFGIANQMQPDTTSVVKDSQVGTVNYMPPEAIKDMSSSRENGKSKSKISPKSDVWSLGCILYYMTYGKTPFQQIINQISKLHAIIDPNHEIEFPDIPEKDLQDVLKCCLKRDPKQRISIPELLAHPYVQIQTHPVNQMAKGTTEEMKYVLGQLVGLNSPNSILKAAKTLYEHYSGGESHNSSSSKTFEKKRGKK

[3] = tested on: Ovarian TICs, 2393A ovarian; assay: Ovarian tumor-initiating cell growth inhibition (Alamar Blue); assay type: cell-based; conditions: 144 h, 6 days, read-out: GI50 range 2393A ovarian
[4] = tested on: OVCAR-3 ovarian cancer cells; assay: Cell growth inhibition, Sulforhodamine B assay, OVCAR-3; assay type: cell-based; conditions: Homo sapiens, 120 h, 5 days culture, SRB assay, read-out: Cell Line GI50 Range OVCAR-3
Aurora B = molecular target: T2, Aurora B (Homo sapiens, UniProt Q96GD4); assay: Aurora B inhibition assay (Z-Lyte); assay type: biochemical; conditions: 28 nM Aurora B, 128 μM ATP; read-out: IC50 Ranges Aurora B
T2 construct: purchased Invitrogen PV3970
T2 sequence (Q96GD4 whole entry): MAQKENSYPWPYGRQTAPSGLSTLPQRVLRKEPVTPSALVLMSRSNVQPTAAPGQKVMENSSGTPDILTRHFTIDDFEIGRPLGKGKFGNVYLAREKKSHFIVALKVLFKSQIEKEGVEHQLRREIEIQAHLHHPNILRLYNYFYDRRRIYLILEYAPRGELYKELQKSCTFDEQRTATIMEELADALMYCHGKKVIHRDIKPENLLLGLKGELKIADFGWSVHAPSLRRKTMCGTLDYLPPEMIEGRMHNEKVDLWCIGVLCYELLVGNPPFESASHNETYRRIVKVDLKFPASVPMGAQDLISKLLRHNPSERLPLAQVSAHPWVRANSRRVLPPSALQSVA
Procedure: Aurora B inhibition was determined using the Z-Lyte assay kit from Invitrogen. The assay was performed using the recommended manufacturer's instructions with 128 μM ATP and 28 nM Aurora B (Invitrogen cat #PV3970). The % inhibition values were determined according to the manufacturer's directions and IC50 values were obtained using a non-linear 4 point logistic curve fit (XLfit4, IDBS)

human PLK4 = molecular target: T3, human PLK4 (Homo sapiens, UniProt O00444); assay: PLK4 inhibition assay (indirect ELISA); assay type: biochemical; conditions: GST-PLK4 4 nM, 15 μM ATP; read-out: IC50 Ranges PLK4
T3 construct: amino terminal GST fusion of residues 1-391 of human PLK4; made in house; host or cells: E. coli
T3 sequence (O00444 1-391): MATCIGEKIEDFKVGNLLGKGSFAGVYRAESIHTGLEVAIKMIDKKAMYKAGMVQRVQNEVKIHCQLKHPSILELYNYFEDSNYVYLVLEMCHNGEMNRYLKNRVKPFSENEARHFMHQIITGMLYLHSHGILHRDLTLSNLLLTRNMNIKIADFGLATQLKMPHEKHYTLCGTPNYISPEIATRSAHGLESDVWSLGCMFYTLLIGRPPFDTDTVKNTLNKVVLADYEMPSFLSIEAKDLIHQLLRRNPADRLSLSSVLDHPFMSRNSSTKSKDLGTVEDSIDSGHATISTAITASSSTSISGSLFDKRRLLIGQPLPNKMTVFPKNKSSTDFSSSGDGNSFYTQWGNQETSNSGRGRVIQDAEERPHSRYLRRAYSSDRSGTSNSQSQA
Summary of the method: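 Compounds were tested either at a single 10 μM dose or across 10-point titrations (typically 0.5 to 0.001 μM), preincubated 15 min with 4 nM GST-PLK4 (human 1-391, dephosphorylated) before 15 μM ATP was added. MBP substrate phosphorylation over 30 min, pH 7.5 HEPES/MgCl2 buffer, read by HRP/TMB ELISA (450 nm). % inhibition vs. high-activity control; IC50 by logistic fit.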

[5] = tested on: HCT116 colon cancer cells; assay: Cell growth inhibition, Sulforhodamine B assay, HCT116; assay type: cell-based; conditions: Homo sapiens, HCT-116, 120 h, 5 days culture, SRB assay, read-out: Cell Line GI50 Range HCT116
[6] = tested on: MDA-MB-231 breast cancer cells; assay: Cell growth inhibition, Sulforhodamine B assay, MDA-MB-231; assay type: cell-based; conditions: Homo sapiens, 120 h, 5 days culture, SRB assay, read-out: Cell Line GI50 Range MDA-MB-231
Procedure: Breast cancer cells (MDA-MB-231, MDA-MB-468), colon cancer cells (HCT116, HT29) and ovarian cancer cells (PA-1, OVCAR-3) were seeded (1000 to 4000 in 80 μl per well depending on the cell growth rate) into 96 well plates 24 hours before compound overlay. Compounds were prepared as 10 mM stock solutions in 100% DMSO which were diluted with DMEM (Dulbecco's Modified Eagle's Medium) cell growth Medium (Invitrogen, Burlington, ON, Canada) containing 10% FBS (Fetal Bovine Serum) to concentrations ranging from 50 nM to 250 μM. Aliquots (20 μl) from each concentration were overlaid to 80 μl of the pre-seeded cells in the 96 well plates to make final concentrations of 10 nM to 50 μM. The cells were cultured for 5 days before the Sulforhodamine B assay (SRB) was performed to determine the compound's cell growth inhibition activity.
Sulforhodamine B (purchased from Sigma, Oakville, ON, Canada) is a water-soluble dye that binds to the basic amino acids of the cellular proteins. Thus, colorimetric measurement of the bound dye provides an estimate of the total protein mass that is related to the cell number. the cells are fixed in situ by gently aspirating off the culture media and adding 50 μl ice cold 10% Trichloroacetic Acid (TCA) per well and incubate at 4° C. for 30-60 min, The plates are washed with water five times and allowed to air dry for 5 min. Addition of 50 μl 0.4% (w/v) SRB solution in 1% (v/v) acetic acid to each well and incubatation for 30 min at RT completes the staining reaction. Following staining, plates are washed four times with 1% acetic acid to remove unbound dye and then allowed to air dry for 5 min. The stain is solubilized with 100 μl of 10 mM Tris pH 10.5 per well. Absorbance is read at 570 nm.
The percentage (%) of relative growth inhibition was calculated by comparing to DMSO treated only cells (100%). […] The GI50 was calculated using GraphPad PRISM software (GraphPad Software, Inc., San Diego, Calif., USA).

[7] = tested on: Colon tumor initiating cells (TICs), 12 colon; assay: Colon tumor-initiating cell growth inhibition (Alamar Blue); assay type: cell-based; conditions: 216 h, 9 days, read-out: GI50 range 12 colon

COCCN1CCC(Oc2ccc(-c3n[nH]c4ccc(C(=O)N[C@H](c5ccsc5)C5CC5)cc34)cc2)CC1 [Example A154]
≤ 5 µM: GI50 [1] | GI50 [2] | GI50 (HT29 colon cancer cells) | IC50 (human TTK) | GI50 [3] | GI50 [4] | IC50 (Aurora B) | IC50 (human PLK4) | GI50 [5] | GI50 [6] | GI50 [7]

CC[C@@H](NC(=O)c1ccc2[nH]nc(-c3ccc(OC4CCN(CCOC)CC4)cc3)c2c1)c1ccccc1Cl [Example A128, (R)—N-(1-(2-chlorophenyl)propyl)-3-(4-((1-(2-methoxyethyl)piperidin-4-yl)oxy)phenyl)-1H-indazole-5-carboxamide]
≤ 5 µM: GI50 [1] | GI50 [2] | GI50 (HT29 colon cancer cells) | IC50 (human TTK) | GI50 [3] | GI50 [4] | IC50 (Aurora B) | IC50 (human PLK4) | GI50 [5] | GI50 [6] | GI50 [7]

O=CN1CCC(Oc2ccc(-c3n[nH]c4ccc(NC(=O)C(c5ccccn5)C5CCCC5)cc34)cc2)CC1 (stereo not drawn) [Example A176, 2-cyclopentyl-N-(3-(4-((1-formylpiperidin-4-yl)oxy)phenyl)-1H-indazol-5-yl)-2-(pyridin-2-yl)acetamide]
≤ 5 µM: GI50 [1] | GI50 [2] | GI50 (HT29 colon cancer cells) | IC50 (human TTK) | GI50 [3] | GI50 [4] | IC50 (Aurora B) | IC50 (human PLK4) | GI50 [5] | GI50 [6] | GI50 [7]

Cc1ccccc1C(C(=O)Nc1ccc2[nH]nc(-c3ccc(OC4CCN(C)CC4)cc3)c2c1)N1CCCC1 (stereo not drawn) [Example A133, N-(3-(4-((1-methylpiperidin-4-yl)oxy)phenyl)-1H-indazol-5-yl)-2-(pyrrolidin-1-yl)-2-(o-tolyl)acetamide]
≤ 5 µM: GI50 [1] | GI50 [2] | GI50 (HT29 colon cancer cells) | IC50 (human TTK) | GI50 [3] | GI50 [4] | IC50 (Aurora B) | IC50 (human PLK4) | GI50 [5] | GI50 [6] | GI50 [7]

CN1CCC(Oc2ccc(-c3n[nH]c4ccc(C(=O)NC(c5ccccc5F)C5CC5)cc34)cc2)CC1 (stereo not drawn) [Example A136, N-(cyclopropyl(2-fluorophenyl)methyl)-3-(4-((1-methylpiperidin-4-yl)oxy)phenyl)-1H-indazole-5-carboxamide]
≤ 5 µM: GI50 [1] | GI50 [2] | GI50 (HT29 colon cancer cells) | IC50 (human TTK) | GI50 [3] | GI50 [4] | IC50 (Aurora B) | IC50 (human PLK4) | GI50 [5] | GI50 [6] | GI50 [7]

CC(C)C(NC(=O)c1ccc2[nH]nc(-c3ccc(OC4CCN(C)CC4)cc3)c2c1)c1ccccc1Cl (stereo not drawn) [Example A144, N-(1-(2-chlorophenyl)-2-methylpropyl)-3-(4-((1-methylpiperidin-4-yl)oxy)phenyl)-1H-indazole-5-carboxamide]
≤ 5 µM: GI50 [1] | GI50 [2] | GI50 (HT29 colon cancer cells) | IC50 (human TTK) | GI50 [3] | GI50 [4] | IC50 (Aurora B) | IC50 (human PLK4) | GI50 [5] | GI50 [6] | GI50 [7]
